PubChem BioAssay AID489022 (Sanford-Burnham Center for Chemical Genomics, 2010)
Activity calls are given as the source filed them. How the calls were made is not given here.

Test system: HEK-293T NF-kB luciferase reporter, luminescence counterscreen
Assay: NF-kB reporter suppression in HEK-293T cells – luminescence, B-cell screen hits, counter-screen for BCR NF-kB inhibitor project, dose response (AID 489022)

| SMILES | IC50 |
| --- | --- |
| Nc1ccccc1SCC(=O)Nc1nc(-c2ccccc2)cs1 | 11.8 µM |
| Cc1ccc(-c2nsc3c(N4CCC(C(N)=O)CC4)ncnc23)cc1 | > 80 µM (inactive) |
| CCOC(=O)Cc1ccc(NC(=O)c2ccc(C(C)(C)C)cc2)cc1 | 1.04 µM |
| Cc1ccc(-c2cc(C(=O)NCCCN3CCOCC3)no2)cc1 | > 80 µM (inactive) |
| N#CC1=C(N)Oc2cc(Nc3ccccc3)ccc2C1c1ccncc1 (centres undefined) | 6.15 µM |
| NNC(=O)COc1ccc(-c2nccc(-c3ccc(F)cc3)n2)cc1 | 42.3 µM (inactive) |
| COc1ccc2nc(Sc3c([N+](=O)[O-])nc(C)n3Cc3ccccc3)[nH]c2c1 | 55.4 µM (inactive) |
| COc1cc(Br)c(C(=O)c2nccc3cc(OC)c(OC)cc23)cc1OC | 27.5 µM (inactive) |
| Cc1ccc(S(=O)(=O)N2CCCCC2CCNC(=O)C(=O)NCc2ccncc2)cc1 (centres undefined) | 38.4 µM (inactive) |
| COc1ccc(/C=C2\SC(=O)N(CCCC(=O)Nc3ccc(C(=O)O)cc3)C2=O)cc1OC | > 80 µM (inactive) |
| O=C(CCCN1C(=O)/C(=C/c2ccccc2Cl)SC1=S)NNC(=O)c1ccccc1 | 21.8 µM (inactive) |
| OCCN1CCN(C(=S)c2ccc(-c3ccccc3)cc2)CC1 | 31.6 µM (inactive) |
| c1ccc(CCNc2ncnc3ccccc23)cc1 | 0.45 µM |
| CCOc1ccc(/C=C2\SC(=S)N(CCC(=O)Nc3cccc(C(=O)O)c3)C2=O)cc1 | > 80 µM (inactive) |
| CCOC(=O)N1CCN(CC(=O)Nc2ccc([N+](=O)[O-])cc2C(=O)Nc2ccccc2F)CC1 | 29.4 µM (inactive) |
| COc1ccc(/C=C2\SC(=S)N(CCCC(=O)NNC(=O)c3ccccc3O)C2=O)cc1 | 2.28 µM |
| Cc1nc2cc(-c3cccc(F)c3)nn2c(C)c1CCC(=O)NC(C)CCc1ccco1 (centres undefined) | 11.4 µM |
| O=C(Nc1ccc(NC(=O)c2cc3ccccc3o2)cc1)c1ccc2c(c1)OCCO2 | > 80 µM (inactive) |
| Oc1cc(O)cc(-c2cc3ccc(O)cc3o2)c1 | > 80 µM (inactive) |
| CCCCOc1ccc(NC(=O)C(=O)NCCCn2ccnc2)cc1 | 44.6 µM (inactive) |
| O=C(NCCC1CCCCN1S(=O)(=O)c1ccc(Cl)cc1)C(=O)NCc1ccncc1 (centres undefined) | 20.4 µM (inactive) |
| O=C(CCl)Nc1ccccc1Sc1ccccc1 | 37.8 µM (inactive) |
| Cc1ccc(/C=C2\SC(=S)N(CCCC(=O)Nc3ccccn3)C2=O)cc1 | 32.1 µM (inactive) |
| COc1ccc(/C=C2/SC(=S)N(CCCC(=O)Nc3cccc(O)c3)C2=O)cc1 | 27.5 µM (inactive) |
| Cc1ccoc1C(=O)Nc1ccc(CC(=O)O)cc1 | 14.2 µM |

| SMILES | IC50 |
| --- | --- |
| O=C(NNC(=O)C12CC3CC(CC(Br)(C3)C1)C2)c1ccccc1F | > 80 µM (inactive) |
| COc1ccccc1/C=C1\SC(=S)N(CCC(=O)Nc2cccc(O)c2)C1=O | > 80 µM (inactive) |
| CCOC(=O)c1sc(NC(=O)c2cc(-c3ccccc3C)nc3ccccc23)c(C#N)c1C | 0.29 µM |
| O=C(CCCN1C(=O)/C(=C/c2ccccc2Cl)SC1=S)NNC(=O)c1ccccc1Cl | 20 µM |
| COc1cc(C2C(C#N)=C(N)Oc3cc(N)ccc32)cc(OC)c1OC (centres undefined) | > 80 µM (inactive) |
| COC(=O)c1c(-c2ccc(N(C)C)cc2)sc2ccc(OC)cc12 | > 80 µM (inactive) |
| Cc1cc(C)cc(OCc2nnc(SCC(=O)c3ccccc3)o2)c1 | 23.7 µM (inactive) |
| CCCS(=O)(=O)Nc1cccc(-c2ccc3nnc(C)n3n2)c1 | > 80 µM (inactive) |
| N=c1ccn(Cc2ccccc2Cl)cc1 | 21.3 µM (inactive) |
| CC(C)(C)c1ccc(-c2noc(CCC(=O)NCc3ccco3)n2)cc1 | 0.49 µM |
| COc1ccc(/C=C2\SC(=S)N(CCC(=O)Nc3ccc(C(=O)O)cc3)C2=O)cc1OC | > 80 µM (inactive) |
| COc1ccc(C2=NCc3nnc(C)n3-c3ccc(Cl)cc32)cc1Cl | > 80 µM (inactive) |
| Cc1[nH]c2ccccc2c1/C=N/Nc1nc(Nc2ccccc2)nc(N2CCOCC2)n1 | > 80 µM (inactive) |
| COc1ccc(C(=O)Nc2ccc(OC)c([N+](=O)[O-])c2)cc1Br | > 80 µM (inactive) |
| CCn1c(=O)cc(SCC(=O)N2CCC3(CC2)OCCO3)c2ccccc21 | > 80 µM (inactive) |
| CC(=C/c1ccco1)/C=N/NC(=O)CSc1nnc(SCc2ccc(C)cc2)s1 | > 80 µM (inactive) |
| COc1ccc(C(=O)N/N=C/c2ccc(OC)c(CN3CCCc4ccccc43)c2)cc1 | > 80 µM (inactive) |
| O=C(O)COc1ccc(-c2nccc(-c3ccccn3)n2)cc1 | 13.3 µM |
| CC(C)[C@H](N)c1nnc(SCC(=O)c2ccc(Cl)cc2)o1 | > 80 µM (inactive) |
| CCn1c(=O)cc(SCC(=O)N2CCN(C)CC2)c2ccccc21 | > 80 µM (inactive) |
| Cc1ccc(C2(c3ccc(C)cc3)CC2C(=O)Nc2ccc([N+](=O)[O-])cc2O)cc1 (centres undefined) | 4.59 µM |
| COc1ccc2nc(C)cc(Sc3nc4ccccc4s3)c2c1 | 11.2 µM |
| CCc1ccc(/C=C2/SC(=S)N(CCC(=O)Nc3ccc(C(=O)O)cc3)C2=O)cc1 | > 80 µM (inactive) |
| CCN(CC)c1ccc2cc(NC(=O)CCC(=O)O)c(=O)oc2c1 | 1.38 µM |
| CC1CCN(C(=O)CCCOc2cc(=O)n(C)c3ccccc23)CC1 | > 80 µM (inactive) |

| SMILES | IC50 |
| --- | --- |
| COc1cc(OC)cc(-c2cc3nc(C)c(CCC(=O)Nc4nc(C)cs4)c(C)n3n2)c1 | > 80 µM (inactive) |
| CCN1C(=O)Nc2cccc3cccc1c23 | 17.8 µM |
| COc1ccc(-c2ccc(OC)c([C@H]3[C@H]4C=CC[C@@H](C)[C@@H]4C(=O)N3Cc3ccccc3)c2)cc1 | 55.5 µM (inactive) |
| Cc1ccc(/C=C2\SC(=S)N(CCCC(=O)Nc3cc(C)on3)C2=O)cc1 | > 80 µM (inactive) |
| CC(C)(C)c1ccc(-c2nnc(SCC(=O)NC3CC3)o2)cc1 | 63.1 µM (inactive) |
| COc1ccc(C(C(=O)NC2CCCCC2)N(C(=O)CCl)c2ccc(Cl)cc2)cc1 (centres undefined) | 25.1 µM (inactive) |
| Cc1ccc(C(=O)C[n+]2cc(-c3ccc(C)cc3)n3c2CCCCC3)cc1 | 4.44 µM |
| O=C(CCCc1nc(-c2ccccc2Cl)no1)NC1CCCC1 | 27.1 µM (inactive) |
| COc1ccc(CC(=O)Nc2cccc(-c3ccc4nnc(C)n4n3)c2)cc1 | 41.8 µM (inactive) |
| Cc1ccc(/C=C2\SC(=S)N(CCCC(=O)Nc3ccc(O)cc3)C2=O)cc1 | > 80 µM (inactive) |
| CCOC(=O)C1CCN(c2ncnc3c2cnn3-c2ccc(OC)cc2)CC1 | 18.4 µM |
| CCOc1cc(/C=N\Nc2nc(Nc3ccccc3)nc(N3CCOCC3)n2)ccc1OC(=O)c1ccco1 | > 80 µM (inactive) |
| CC1=CC(C)(C)Nc2ccc(OC(=O)c3ccco3)cc21 | 16.3 µM |
| COc1cccc(Cn2nnc(C(=O)Nc3cc(Cl)ccc3OC)c2N)c1 | > 80 µM (inactive) |
| CCNC(=O)CCc1nc(-c2ccc(C(C)(C)C)cc2)no1 | 34.9 µM (inactive) |
| COc1ccc(/C=N/OCC(=O)NC(c2ccccc2)c2ccccc2)cc1OC | 0.72 µM |
| Cn1nc(-c2ccc(Cl)cc2)c2cc(C(=O)N3CCCC3)sc21 | 3.75 µM |
| Cc1ccc2nc(NC(=O)CSCC(=O)OCC(=O)c3ccc(Br)cc3)sc2c1 | 1.82 µM |
| CN1C(=O)CC(c2ccco2)Sc2ccccc21 (centres undefined) | > 80 µM (inactive) |
| COc1ccc(C(=O)Nc2nnc(SCC(=O)Nc3ccc(NC(C)=O)cc3)s2)c(OC)c1 | > 80 µM (inactive) |
| COc1ccc(-c2noc(N3CCC(C(=O)Nc4ccc(F)cc4F)CC3)n2)cc1 | > 80 µM (inactive) |
| COc1ccc(-c2ccoc2)cc1[C@H]1[C@H]2C=CC[C@@H](C)[C@@H]2C(=O)N1Cc1ccccc1 | 10.5 µM |
| Cc1ccc(-c2c[n+]3c(n2-c2ccccc2)SCC3)cc1 | 7.4 µM |
| O=C(NNC(=O)c1ccccc1O)c1ccc(Cl)c(S(=O)(=O)N2CCc3ccccc32)c1 | 0.47 µM |
| Cn1c(=O)cc(OCC(=O)N2CCC3(CC2)OCCO3)c2ccccc21 | > 80 µM (inactive) |

| SMILES | IC50 |
| --- | --- |
| CC1CN(S(=O)(=O)c2ccc(C(=O)Nc3nc(-c4cc5ccccc5o4)cs3)cc2)CC(C)O1 (centres undefined) | < 0.16 µM |
| Cc1cc(C)cc(N2C(=O)NC(=O)/C(=C\c3cccn3-c3ccccc3)C2=O)c1 | > 80 µM (inactive) |
| CCc1ccc(/C=C2\SC(=S)N(CCC(=O)Nc3cc(C)on3)C2=O)cc1 | > 80 µM (inactive) |
| COc1ccc(-c2csc3nc(-c4cccnc4)nc(N4CCC(C(N)=O)CC4)c23)cc1OC | 9.06 µM |
| COc1ccc(C(C(=O)NC2CCCCC2)N(C(=O)CCl)c2ccc(OC)cc2)cc1 (centres undefined) | 15.2 µM |
| NC(=O)C1CCN(C(=O)COc2ccc3ccccc3c2Br)CC1 | > 80 µM (inactive) |
| CCn1c(=O)c2cc(C(=O)NC(C)C)sc2c2ccccc21 | > 80 µM (inactive) |
| Cc1ccc(NC(=O)O/N=C/c2c(C)nn(C(C)(C)C)c2C)cc1Cl | < 0.16 µM |
| CC1=CC(C)(C)Nc2ccc(OC(=O)c3cccnc3)cc21 | 16.1 µM |
| Cc1cc(OCC(=O)N2CCC(C(N)=O)CC2)c2c3c(c(=O)oc2c1)CCCC3 | > 80 µM (inactive) |
| Cc1c(CCC(=O)N2CCC(C(=O)O)CC2)c(=O)oc2cc3oc4c(c3cc12)CCCC4 | 12.8 µM |
| C=CCOc1ccc(NC(=O)C(=O)NCCCn2ccnc2)cc1 | > 80 µM (inactive) |
| CCC(C)[C@H](N)c1nnc(SCC(=O)c2ccc(Cl)cc2)o1 (some centres undefined) | > 80 µM (inactive) |
| CCN1C(=O)c2cccc3c(S(=O)(=O)Nc4ccccc4)ccc1c23 | 18.7 µM |
| COc1ccc(NC(=O)c2cc3c(Cl)nc4ccccc4c3s2)cc1OC | > 80 µM (inactive) |
| COc1cc(-c2[nH]nc3c2C(c2ccco2)C(C#N)=C(N)O3)cc(OC)c1OC (centres undefined) | > 80 µM (inactive) |
| Cn1c(=O)cc(OCCCC(=O)NCc2ccccn2)c2ccccc21 | > 80 µM (inactive) |
| CNC(=O)CSc1nc2nn(-c3ccccc3)c(=O)c-2c2n1CCCCC2 | > 80 µM (inactive) |
| Cn1c(=O)n(C)c2cc(/C=C3/NC(=O)N(Cc4ccccc4)C3=O)ccc21 | > 80 µM (inactive) |
| Cc1cc(C)c(CN2CCN(C(=O)Cn3cnc4c(NCc5ccccc5)ncnc43)CC2)c(C)c1 | 0.51 µM |
| Cc1ccc(CSc2nnc(SCC(=O)N/N=C/C=C/c3ccccc3[N+](=O)[O-])s2)cc1 | 34.8 µM (inactive) |
| CCc1ccc2[nH]c3nc(N/N=C/c4cccc(O)c4)nnc3c2c1 | > 80 µM (inactive) |
| CN1C(=O)CSc2ccc(NC(=O)N3CCN(c4ccccc4)CC3)cc21 | 50.5 µM (inactive) |
| Cc1ccc(S(=O)(=O)Nc2ccc3c(c2)n(C)c(=O)n3C)cc1 | 65.2 µM (inactive) |
